From US20090176811A1, “Substituted 5,6,7,8-Tetrahydro-pyrido[4,3-d]pyrimidine-2-yl Compounds and 5,6,7,8-Tetrahydro-quinazoline-2-yl Compounds” (GRUENENTHAL GmbH, priority 2004, published 2009)

Tests used:
[1] = molecular target: T1, mGluR5 receptor (Sus scrofa, UniProt I3LUI7); test: Affinity for the mGluR5 receptor ([3H]-MPEP binding, pig brain homogenate); settings: 10 μM compound, 15 nM [3H]-MPEP
T1 construct: 450 μg of protein from brain homogenate is incubated; from tissue; host or cells: pig brain hemispheres without medulla, cerebellum and pons
Protocol: III. Method for Determining Affinity for the mGluR5 Receptor
Pig brain homogenate is produced by homogenisation (Polytron Pt 3000, Kinematica AG, 10,000 rpm (revolutions per minute) for 90 seconds) of pig brain hemispheres without medulla, cerebellum and pons in a buffer of pH 8.0 (30 mM Hepes, Sigma, order number H3375+1 tablet Complete Roche Diagnostics, order number 1836145 made up to 100 ml) in a ratio of 1:20 (brain weight/volume) and differential centrifugation at 900 g and 40,000 g. 450 μg of protein from brain homogenate is incubated in each case in 250 μl incubation batches in 96-well microtitre plates with 15 nM ^3[H]-MPEP (Tocris, order number R1212) and the compounds to be investigated (in each case 10 μM in the test) in the above-stated buffer at room temperature for 60 minutes.
The batches are then filtered with the assistance of a Brandel Cell Harvester (Brandel, Grade Robotic 9600) on Unifilter plates with glass filter mats (Perkin Elmer, order number 6005177) and then rewashed 3 times with buffer of the above-stated composition using 250 μl per sample. The filter plates are then dried for 60 minutes at 55° C. Then 30 μl of Ultima Gold scintillating material (Packard BioScience, order number 6013159) is added per well and after 3 hours the samples are measured using the B counter ([…], Perkin Elmer). Nonspecific binding is determined by the addition of 10 μM 2-methyl-6-(phenylethynyl)-pyridine (Tocris, order number 1212).

[2] = molecular target: T2, 5-HT transporter (Rattus norvegicus, UniProt P31652); test: 5-HT uptake inhibition in rat brain synaptosomes (medulla and pons); assay type: biochemical
T2 construct: from tissue; host or cells: rat medulla and pons synaptosomes (P2 fraction)
Outline: (§1)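 Freshly isolated P2 synaptosomes from rat hypothalamus (noradrenalin) or medulla and pons (5-HT) incubated at room temperature under O2 with [3H]-NA for 7.5 min or [3H]-5-HT for 5 min. Uptake measured by filtration and scintillation counting.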

[3] = molecular target: T3, NA transporter (Rattus norvegicus, UniProt Q63380); test: Noradrenalin uptake inhibition in rat brain synaptosomes (hypothalamus); assay type: biochemical
T3 construct: from tissue; host or cells: rat hypothalamus synaptosomes (P2 fraction)
Outline: as §1

T2 sequence (P31652 whole entry): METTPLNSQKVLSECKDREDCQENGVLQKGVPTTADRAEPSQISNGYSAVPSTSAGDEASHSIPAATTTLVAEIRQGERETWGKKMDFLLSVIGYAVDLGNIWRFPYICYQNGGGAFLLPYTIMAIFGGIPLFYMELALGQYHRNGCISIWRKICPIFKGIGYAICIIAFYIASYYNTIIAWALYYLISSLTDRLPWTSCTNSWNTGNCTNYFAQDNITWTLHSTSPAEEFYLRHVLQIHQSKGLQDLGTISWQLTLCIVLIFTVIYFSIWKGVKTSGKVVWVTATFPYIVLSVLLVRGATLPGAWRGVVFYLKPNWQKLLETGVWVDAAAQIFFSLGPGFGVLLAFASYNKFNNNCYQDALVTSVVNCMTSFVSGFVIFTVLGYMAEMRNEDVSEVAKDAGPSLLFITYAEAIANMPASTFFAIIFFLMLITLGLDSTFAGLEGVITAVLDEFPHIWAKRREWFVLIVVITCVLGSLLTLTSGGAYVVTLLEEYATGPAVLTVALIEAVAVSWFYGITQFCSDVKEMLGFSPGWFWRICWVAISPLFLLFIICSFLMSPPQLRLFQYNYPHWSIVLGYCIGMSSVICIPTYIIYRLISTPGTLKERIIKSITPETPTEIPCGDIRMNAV
T3 sequence (Q63380 1-617): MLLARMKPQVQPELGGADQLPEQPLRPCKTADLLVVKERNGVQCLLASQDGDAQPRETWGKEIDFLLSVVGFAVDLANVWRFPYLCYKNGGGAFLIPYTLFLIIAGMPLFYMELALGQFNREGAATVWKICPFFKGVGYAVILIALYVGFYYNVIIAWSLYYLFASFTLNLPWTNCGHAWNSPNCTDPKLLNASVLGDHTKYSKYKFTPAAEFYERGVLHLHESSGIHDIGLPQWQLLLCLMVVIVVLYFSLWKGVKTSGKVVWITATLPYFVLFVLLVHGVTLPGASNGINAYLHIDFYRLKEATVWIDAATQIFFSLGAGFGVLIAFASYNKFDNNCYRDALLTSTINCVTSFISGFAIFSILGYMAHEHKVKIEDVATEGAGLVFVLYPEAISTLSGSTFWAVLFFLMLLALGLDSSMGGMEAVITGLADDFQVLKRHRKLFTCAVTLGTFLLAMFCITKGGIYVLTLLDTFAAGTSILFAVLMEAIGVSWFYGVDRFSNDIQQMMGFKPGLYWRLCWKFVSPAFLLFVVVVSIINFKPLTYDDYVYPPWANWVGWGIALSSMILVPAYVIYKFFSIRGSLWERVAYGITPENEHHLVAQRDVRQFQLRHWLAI
T1 sequence (I3LUI7 19-1212): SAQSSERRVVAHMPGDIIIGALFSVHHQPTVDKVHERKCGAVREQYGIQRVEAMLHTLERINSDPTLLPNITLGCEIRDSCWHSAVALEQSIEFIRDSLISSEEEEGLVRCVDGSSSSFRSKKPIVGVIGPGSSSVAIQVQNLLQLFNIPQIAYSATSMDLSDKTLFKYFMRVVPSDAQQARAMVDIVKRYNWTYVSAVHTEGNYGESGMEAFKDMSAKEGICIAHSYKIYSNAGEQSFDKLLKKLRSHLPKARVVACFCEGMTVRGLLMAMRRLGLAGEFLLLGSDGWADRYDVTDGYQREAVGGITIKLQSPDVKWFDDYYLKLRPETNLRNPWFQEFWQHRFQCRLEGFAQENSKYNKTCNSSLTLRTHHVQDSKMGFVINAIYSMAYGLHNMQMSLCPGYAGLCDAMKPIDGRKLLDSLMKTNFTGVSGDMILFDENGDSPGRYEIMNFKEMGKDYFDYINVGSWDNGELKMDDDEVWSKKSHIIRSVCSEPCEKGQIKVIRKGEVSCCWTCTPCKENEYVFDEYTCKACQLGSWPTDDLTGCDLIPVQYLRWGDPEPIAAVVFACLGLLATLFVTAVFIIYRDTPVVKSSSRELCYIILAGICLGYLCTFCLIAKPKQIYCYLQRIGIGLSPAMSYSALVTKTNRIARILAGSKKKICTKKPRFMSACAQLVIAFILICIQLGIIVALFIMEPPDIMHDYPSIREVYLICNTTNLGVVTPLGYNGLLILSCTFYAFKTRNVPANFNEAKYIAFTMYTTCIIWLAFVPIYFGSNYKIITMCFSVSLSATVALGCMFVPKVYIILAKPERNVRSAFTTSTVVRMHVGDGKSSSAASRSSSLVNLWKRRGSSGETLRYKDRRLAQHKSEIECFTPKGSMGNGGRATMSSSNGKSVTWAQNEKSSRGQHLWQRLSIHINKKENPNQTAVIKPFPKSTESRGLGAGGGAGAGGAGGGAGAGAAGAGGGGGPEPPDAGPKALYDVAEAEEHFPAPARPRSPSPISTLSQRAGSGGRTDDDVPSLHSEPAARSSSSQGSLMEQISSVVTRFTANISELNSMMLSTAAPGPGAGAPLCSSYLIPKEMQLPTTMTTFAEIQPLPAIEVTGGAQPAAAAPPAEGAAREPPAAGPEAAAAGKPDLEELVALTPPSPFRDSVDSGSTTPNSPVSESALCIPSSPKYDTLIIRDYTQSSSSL

SMILES | inhibition at 10 µM [1] [%] | inhibition at 1 µM [2] [%] | inhibition at 10 µM [3] [%]
CCc1ccc(C(=O)Nc2ncc3c(n2)CCN(S(=O)(=O)c2ccc(OC)cc2)C3)cc1 [Example 172, 4-ethyl-N-[6-(4-methoxy-benzenesulfonyl)-5,6,7,8-tetrahydro-pyrido[4,3-d]pyrimidin-2-yl]-benzamide] | 70.1 | 57 | 85
Cc1ccc(C(=O)Nc2ncc3c(n2)CCN(C(=O)COc2cccc(Cl)c2)C3)cc1 [Example 189, N-{6-[2-(3-chloro-phenoxy)-acetyl]-5,6,7,8-tetrahydro-pyrido[4,3-d]pyrimidin-2-yl}-4-methyl-benzamide] | 39.5 | 46 | 53
CCCCC(C)CCC(=O)N1CCc2nc(NC(=O)c3cccc4ccccc34)ncc2C1 (stereo not drawn) [Example 193, naphthalene-1-carboxylic acid [6-(4-methyl-octanoyl)-5,6,7,8-tetrahydro-pyrido[4,3-d]pyrimidin-2-yl]-amide] | 51.8 | 38 | 43
